Tests used:
[1] = tested on: human rhabdomyosarcoma cell lines RD, JR-1, and RH30; assay: Alamar Blue cell viability assay, rhabdomyosarcoma panel; type: cell-based; details: range over RD, JR-1, RH30
Experimental: Sarcoma cell lines were seeded in 24-well plates in 1X RPMI medium containing 10% fetal bovine serum. Cells were then incubated with DMSO (control) or concentrations of LY5 ranging from 10 nM to 10 μM for 96 hrs. At the end of the incubation period, Alamar Blue (Invitrogen, Carlsbad, CA) was added to cells at one-tenth the volume of the cell culture medium and incubated for 3 hrs at 37° C in the dark. Fluorescence was then measured at an excitation/emissions wavelength of 570/590 nm and emission wavelength of 590 nm.
Fig 2 Biologic activity of LY5 in sarcoma cell lines. Dose response curves for LY5: RMS cell lines (RH30, RD, JR-1), ES cell lines (ES-3, ES-6, ES-7, ES-8), and an OS cell line (OS-17) were treated with LY5 (concentrations ranging from 10 nM to 10 μM) for 96 hours. Cell viability was determined using Alamar Blue staining. IC50 values are indicated for each cell line. Analyses were performed in triplicate and data are plotted as means ± standard deviation.

[2] = Protein binding in mice; type: in vitro ADME
[3] = tested on: K7M2 cells; assay: Ex vivo pulmonary metastasis assay (PuMA); type: cell-based, murine; details: K7M2, 10 μM LY5 only
Experimental: GFP-positive K7M2 and MG63.3 cells (3 x 10^5 MG63.3; 5 x 10^5 K7M2) were administered via tail vein injection into mice. Following humane euthanasia, the lungs were insufflated with a culture medium/agarose mixture to a constant hydrostatic pressure of 20 cm H2O and prepared for ex vivo culture as previously described. Lung sections were cultured in complete media containing LY5 (0, 0.1, 1, 10 or 50 μM) on sterile Gelfoam using 6 lung sections per treatment condition. Media was changed every 48 hrs and lung slices were imaged with a fluorescent microscope every 7 days for a total of 21 days.
MG63.3 and K7M2 cell lines were exposed to increasing concentrations of LY5 to determine the IC50 (A). Western blot analysis was performed to determine the dose and duration of LY5 exposure required to inhibit STAT3 phosphorylation (B-C). Serial imaging of fluorescently labeled MG63.3 and K7M2 cells was performed in ex vivo LY5 treated lung sections (D). Metastatic burden was quantified by evaluation of the percent tumor burden (mean normalized fluorescent area). Data are reported as the mean ± standard deviation. In MG 63.3 experiment, p < 0.0001 Kruskal-Wallis test, p < 0.05 10 μM vs control at days 7, 14, and 21, 10 μM vs 1 μM at days 7, 14, and 21, 50 μM vs control at days 7, 14, and 21, and 50 μM vs 10 μM at days 7, 14, and 21 post-test Dunn. […]

[4] = target: STAT3 (Homo sapiens, UniProt P40763); assay: Western blot of basal p-STAT3 (Tyr705) in sarcoma cell lines RH30, EW8, RD; type: cell-based; parameters: endogenous in cells; details: ES, OS and RMS cells, RH30, EW8, RD treated 30 minutes
STAT3, sequence (P40763 whole entry): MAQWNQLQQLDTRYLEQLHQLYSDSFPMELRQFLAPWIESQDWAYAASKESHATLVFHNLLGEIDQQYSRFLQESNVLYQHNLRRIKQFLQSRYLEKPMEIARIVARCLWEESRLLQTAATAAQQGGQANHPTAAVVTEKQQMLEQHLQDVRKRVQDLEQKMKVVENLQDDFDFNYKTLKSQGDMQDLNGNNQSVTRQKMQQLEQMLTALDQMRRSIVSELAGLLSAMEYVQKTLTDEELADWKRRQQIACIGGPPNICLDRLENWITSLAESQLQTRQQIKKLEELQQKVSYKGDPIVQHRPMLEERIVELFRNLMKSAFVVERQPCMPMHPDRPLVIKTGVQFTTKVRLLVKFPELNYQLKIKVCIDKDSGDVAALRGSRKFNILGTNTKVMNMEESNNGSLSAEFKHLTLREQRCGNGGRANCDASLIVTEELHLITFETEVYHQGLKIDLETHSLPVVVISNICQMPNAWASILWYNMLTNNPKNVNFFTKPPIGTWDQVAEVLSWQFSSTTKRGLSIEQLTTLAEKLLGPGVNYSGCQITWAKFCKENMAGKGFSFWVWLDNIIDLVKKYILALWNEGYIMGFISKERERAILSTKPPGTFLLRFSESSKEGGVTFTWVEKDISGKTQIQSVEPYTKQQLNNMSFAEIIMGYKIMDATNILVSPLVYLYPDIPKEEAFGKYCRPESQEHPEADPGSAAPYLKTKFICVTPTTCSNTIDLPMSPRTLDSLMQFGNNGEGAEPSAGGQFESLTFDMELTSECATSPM
Experimental: (§1) Cell lysis, protein isolation and immunoblotting were performed as described previously. Twenty micrograms of protein were resolved using 4–12% Bis-Tris polyacrylamide gels. Gels were transferred to PVDF membranes and subjected to blocking and incubation with primary and secondary antibodies. The primary antibodies used in this study included: phospho-STAT3 (Tyr705, Cell Signaling, Boston, MA and Abcam, Cambridge, MA), total STAT3 (Cell Signaling and Abcam), phospho-STAT1 (Cell Signaling), total STAT1 (Cell Signaling), phospho-STAT2 (Cell Signaling), phospho-STAT4 (Cell Signaling), phospho-STAT6 (Cell Signaling), and GAPDH (Cell Signaling). Protein bands were detected using Western Lightning ® Plus Enhanced Chemiluminescence substrate (Perkin Elmer, Waltham, MA) and HyBlot CL ® Autoradiography film (Denville Scientific, Holliston, MA). The cytokines used in this study included: interferon gamma (IFN-γ, Cell Signaling), interferon alpha (IFN-α, Cell Signaling), interleukin-4 (IL-4, Cell Signaling), interleukin-6 (IL-6, Cell Signaling), and oncostatin M (OSM, Cell Signaling).
(§2) Fig 1 LY5 inhibits pSTAT3 in sarcoma cell lines. (A) The tumor cell lines RH30, EW8, and RD were treated with increasing concentrations of LY5 for 30 minutes. Cell lysates were collected for Western blotting of p-STAT3, total STAT3, and GAPDH. GAPDH was used as loading control. […]

[5] = target: T1, STAT1 (Homo sapiens, UniProt P42224); assay: Cytokine-induced STAT1 phosphorylation in SJSA cells, Western blot; type: cell-based; details: induced by IFN-γ, IFN-α, or IL-4
T1 construct: endogenous in cells; host or cells: SJSA
T1 sequence (P42224 whole entry): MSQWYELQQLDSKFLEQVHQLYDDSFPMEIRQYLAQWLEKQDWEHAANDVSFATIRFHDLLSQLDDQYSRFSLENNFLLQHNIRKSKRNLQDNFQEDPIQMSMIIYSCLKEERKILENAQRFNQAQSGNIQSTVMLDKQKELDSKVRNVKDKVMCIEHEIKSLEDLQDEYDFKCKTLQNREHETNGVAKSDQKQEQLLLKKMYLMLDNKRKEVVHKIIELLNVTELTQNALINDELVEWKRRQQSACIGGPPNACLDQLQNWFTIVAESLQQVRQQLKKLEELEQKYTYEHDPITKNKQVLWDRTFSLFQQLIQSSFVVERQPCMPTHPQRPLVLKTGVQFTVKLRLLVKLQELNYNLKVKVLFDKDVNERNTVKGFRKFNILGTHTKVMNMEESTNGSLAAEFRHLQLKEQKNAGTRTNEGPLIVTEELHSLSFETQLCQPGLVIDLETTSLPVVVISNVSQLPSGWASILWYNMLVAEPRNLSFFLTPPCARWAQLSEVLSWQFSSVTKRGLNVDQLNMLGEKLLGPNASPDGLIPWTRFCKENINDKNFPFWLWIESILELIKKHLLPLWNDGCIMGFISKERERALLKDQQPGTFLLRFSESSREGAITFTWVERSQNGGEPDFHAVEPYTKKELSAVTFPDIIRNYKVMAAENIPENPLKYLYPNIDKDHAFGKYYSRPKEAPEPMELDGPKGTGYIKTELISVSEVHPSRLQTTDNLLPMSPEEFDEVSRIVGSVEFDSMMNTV
Experimental: as §1, §2

NS(=O)(=O)c1cccc2c1C(=O)C=C(Nc1cccnc1)C2=O [LY5, 5,8-dioxo-6-(pyridin-3-ylamino)-5,8-dihydronaphthalene-1-sulfonamide]
IC50 [1]: 200 to 400 nM | drug protein-bound [2]: Approximately 90% | tumor burden in PuMA [3]: reduction | basal STAT3 phosphorylation at Tyr705 [4]: inhibited basal STAT3 phosphorylation | phosphorylation of STAT1 [5]: did not inhibit

— PMC5531494, “Target specificity, in vivo pharmacokinetics, and efficacy of the putative STAT3 inhibitor LY5 in osteosarcoma, Ewing's sarcoma, and rhabdomyosarcoma” (PLoS ONE, 2017)
